From publication PMC5584980, “Deciphering HLA-I motifs across HLA peptidomes improves neo-antigen predictions and identifies allostery regulating HLA specificity” (PLoS Computational Biology, 2017)

Tested on: HLA-B14:02 wt
Assay: Binding stability assay, refolded HLA-I/peptide complex, ELISA
Parameters: species or system human
Experimental: W97R mutation was introduced into HLA-B14:02 wt by overlap extension PCR and confirmed by DNA sequencing. BL21(DE3)pLys bacterial cells were used to produce HLA-B14:02 wt and W97R as inclusion bodies. Four peptides with histidine or arginine at P2 (A[H/R]TKPRPAL, G[H/R]YDRSKSL, A[H/R]FAKSISL, H[H/R]FEKAVTL) were synthesized at the Peptide Facility (UNIL, Lausanne) with free N and C-termini (1mg of each peptide, > 80% purity). Peptides with histidine at P2 come from our HLA peptidomics data and were assigned to HLA-B15:18 by our mixture model algorithm. Based on our analysis of HLA sequence and structure, peptides with histidine at P2 are predicted to interact with HLA-B14:02 W97R, while peptides with arginine at P2 are predicted to bind better HLA-B14:02 wt.
Synthetic peptides were incubated separately with denaturated […] mutant refolded by dilution in the presence of biotinylated beta-2 microglobulin proteins at temperature T = 4°C for 48 hours. […] Negative controls consist of absence of peptides. koff were determined by fitting exponential curves to the light intensity values obtained by ELISA at different time points. […] For two peptides showing exceptionally high binding stability, only lower bounds on half-lives could be determined (dashed lines in Fig 5D).

With “AHTKPRPAL [synthetic HLA-B15:18 ligand from HLA peptidomics data, histidine at P2, free N and C-termini]” the “binding of the peptide” value was “fully abolished”.
